Source: patent publication US10377763B2, “Morphinan derivative and medical usage thereof” (UNIVERSITY OF TSUKUBA, priority 2015, dated 2019)
Where “and” joins values, the source holds several entries; their conditions need not be identical. Equal values may be shown once.

Assays:
human OX1R = human OX1R (Homo sapiens (Human), UniProt O43613); assay: Measurement of antagonistic activity against orexin receptors (intracellular calcium, CHOOX1R cells); type: cell-based
Description: (§1) The Chinese hamster ovary (CHO) cell lines CHOOX1R and CHOOX2R were established by modifying CHO cells to constantly express the NFAT-luciferase gene and either the human OX1R or human OX2R gene. Those cells were plated at 10,000 cells/well in 96-well multiplates with DMEM (manufactured by Sigma-Aldrich Co. LLC) supplemented with 5% FBS (manufactured by Thermo Scientific Inc.) and incubated at 37° C. and 5% CO2 for 48 hours. After removal of the medium, 100 μL of an assay buffer (20 mM HEPES (manufactured by Sigma-Aldrich Co. LLC), Hank's balanced salt solution (manufactured by Gibco), 0.1% BSA (manufactured by Sigma-Aldrich Co. LLC), 2.5 mM probenecid acid (manufactured by Wako Pure Chemical Industries, Ltd.), pH 7.4) containing 5 μM Fura-2AM (manufactured by Cayman Chemical Co.) was added to each well, and incubated at 37° C. and 5% CO2 for 60 minutes. After removal of the buffer containing Fura-2AM, 75 μL of the assay buffer was added to each well. Then, […] of the assay buffer containing a test compound at various concentrations and OX-A (manufactured by Peptide Institute, Inc.) was added to start the reaction. The change in intracellular calcium ion concentration induced by the reaction was evaluated by the ratio of fluorescent intensities, which were measured at a wavelength of 510 nm based on the two wavelength excitation approach using FDSS 7000 (manufactured by Hamamatsu Photonics K.K.) with fluorescence excitation at 340 nm and 380 nm. A concentration-response curve on the antagonistic activity was plotted from the values of maximal fluorescent intensity ratio determined when various concentrations of a test compound were added in the presence of […] of OX-A, where a value of maximal fluorescent intensity ratio determined by adding 300 pM of OX-A alone corresponds to 100% and a value of maximal fluorescent intensity ratio determined by adding the assay buffer alone corresponds to 0%. Based on the resulting non-linear regression curve, the 50% maximal inhibitory concentration (IC50) was calculated. Each test compound was dissolved in DMSO to a concentration of 10 mM (the final concentration of DMSO was 1%), and then diluted with the assay buffer to give a final concentration of 3.0×10^−10 M to 1.0×10^−5 M (a common ratio of 3), while OX-A was diluted to a final concentration of 300 pM. The experiment was performed in quadruplicate plates, and the results of the four independent measurements were averaged to give the value of each reaction, and then the IC50 of a sample was calculated. If the sample number was 2 or more, the averaged IC50 was used.

human OX2R = human OX2R (Homo sapiens (Human), UniProt O43614); assay: Measurement of antagonistic activity against orexin receptors (intracellular calcium, CHOOX2R cells); type: cell-based
Chain of human OX2R (O43614 whole entry): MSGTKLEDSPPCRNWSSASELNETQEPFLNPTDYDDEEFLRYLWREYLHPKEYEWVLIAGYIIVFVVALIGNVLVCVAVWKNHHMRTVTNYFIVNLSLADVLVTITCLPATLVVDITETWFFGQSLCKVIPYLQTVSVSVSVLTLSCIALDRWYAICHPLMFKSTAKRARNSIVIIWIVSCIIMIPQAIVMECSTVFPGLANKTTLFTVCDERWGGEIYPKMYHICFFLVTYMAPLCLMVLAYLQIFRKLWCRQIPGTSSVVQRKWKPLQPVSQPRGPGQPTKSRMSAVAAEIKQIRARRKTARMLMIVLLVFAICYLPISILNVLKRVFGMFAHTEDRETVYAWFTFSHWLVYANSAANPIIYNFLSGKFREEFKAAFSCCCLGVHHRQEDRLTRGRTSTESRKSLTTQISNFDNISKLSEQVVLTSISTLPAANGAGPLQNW
Description: as §1

[1] = tested on: male ICR mice with morphine physical dependence; assay: Evaluation of the prophylactic effect on drug dependence (naloxone-induced withdrawal syndrome in morphine-dependent mice); type: in vivo; conditions: 10 mg/kg repeatedly with morphine Day 1-5, naloxone 3 mg/kg s.c.
Description: Increasing doses of morphine hydrochloride dissolved in saline were administered subcutaneously to 7-week-old male ICR mice twice daily (dosing interval: about 12 hours) for four days (dose: Day 1, 8 mg/kg followed by 15 mg/kg; Day 2, 20 mg/kg followed by 25 mg/kg; Day 3, 30 mg/kg followed by 35 mg/kg; Day 4, 40 mg/kg followed by 45 mg/kg). On Day 1 to Day 4, the mice were administered intraperitoneally with the compound of Example 45 (Compound 26) at 10 mg/kg or saline, the solvent of the compound, 30 minutes prior to every first administration of morphine hydrochloride. On Day 5, the mice were administered subcutaneously with the compound of Example 45 (Compound 26) at 10 mg/kg or saline, and 30 minutes later administered subcutaneously with morphine hydrochloride at 45 mg/kg as the final dose. Two hours after the final administration of morphine hydrochloride, the mice were administered subcutaneously with naloxone hydrochloride at 3 mg/kg; symptoms of withdrawal syndrome (jumping, body shake, ptosis, forepaw tremor, rearing, body weight loss, and diarrhea) which appeared 60 minutes after administration of naloxone hydrochloride were observed. Body weight was measured before and every 15 minutes after naloxone hydrochloride administration. Moreover, diarrhea was graded according to a three-point scoring system based on the appearance of feces: normal feces (Normal), loose feces (Slightly), and liquid feces or liquid diarrhea (Severe). The other symptoms of withdrawal syndrome were evaluated based on the presence or absence of their manifestation. Statistical analysis was performed using chi square test and two-way analysis of variance and setting the significance level at p<0.05.

[2] = tested on: male ICR mice with morphine physical dependence; assay: Evaluation of the therapeutic effect on drug dependence (naloxone-induced withdrawal syndrome in morphine-dependent mice); type: in vivo; conditions: 10 mg/kg i.p. 30 minutes prior to naloxone 3 mg/kg s.c., after repeated morphine
Description: Increasing doses of morphine hydrochloride dissolved in saline were administered subcutaneously to 7-week-old male ICR mice twice daily (dosing interval: about 12 hours) for four days (dose: Day 1, 8 mg/kg followed by 15 mg/kg; Day 2, 20 mg/kg followed by 25 mg/kg; Day 3, 30 mg/kg followed by 35 mg/kg; Day 4, 40 mg/kg followed by 45 mg/kg). On Day 5, the mice were administered subcutaneously with morphine hydrochloride at 45 mg/kg as the final dose. Two hours after the final administration of morphine hydrochloride, the mice were administered subcutaneously with naloxone hydrochloride at 3 mg/kg. The mice were administered intraperitoneally with the compound of Example 45 (Compound 26) at 10 mg/kg or saline, the solvent of the compound, 30 minutes prior to the administration of naloxone hydrochloride. Symptoms of withdrawal syndrome (jumping, body shake, ptosis, forepaw tremor, rearing, body weight loss, and diarrhea) which appeared 60 minutes after the last dose of naloxone hydrochloride were observed. Body weight was measured before and every 15 minutes after naloxone hydrochloride administration. Moreover, diarrhea was graded according to a three-point scoring system based on the appearance of feces: normal feces, loose feces, and liquid feces or liquid diarrhea. The other symptoms of withdrawal syndrome were evaluated based on the presence or absence of their manifestation. Statistical analysis was performed using chi square test and two-way analysis of variance and setting the significance level at p<0.05.

Chain of human OX1R (O43613 whole entry): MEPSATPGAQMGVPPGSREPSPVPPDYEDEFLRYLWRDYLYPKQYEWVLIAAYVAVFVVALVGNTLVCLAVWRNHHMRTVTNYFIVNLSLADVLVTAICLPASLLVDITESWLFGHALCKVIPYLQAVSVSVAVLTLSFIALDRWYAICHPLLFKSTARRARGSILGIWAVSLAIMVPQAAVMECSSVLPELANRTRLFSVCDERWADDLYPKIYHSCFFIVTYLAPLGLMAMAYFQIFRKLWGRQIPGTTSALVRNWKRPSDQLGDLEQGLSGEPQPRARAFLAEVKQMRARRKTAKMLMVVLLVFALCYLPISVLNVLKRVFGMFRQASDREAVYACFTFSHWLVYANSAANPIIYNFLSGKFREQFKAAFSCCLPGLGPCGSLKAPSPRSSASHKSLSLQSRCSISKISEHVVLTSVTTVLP

## COc1ccc2c3c1O[C@H]1[C@H](N(C)C(=O)/C=C/c4ccccn4)CC[C@@]4(O)[C@@H](C2)N(S(=O)(=O)c2ccccc2N(C)C)CC[C@]314 [Example 45, (E)-N-[(4R,4aS,7R,7aR,12bS)-3-{[2-(dimethylamino)phenyl]sulfonyl}-4a-hydroxy-9-methoxy-2,3,4,4a,5,6,7,7a-octahydro-1H-4,12-methanobenzofuro[3,2-e]isoquinolin-7-yl]-N-methyl-3-(pyridin-2-yl)acrylamide]
Human OX1R
  IC50: 3.61 nM
Human OX1R; summary of Table 6
  antagonistic activity against human OX1 receptor (in words): potent and selective antagonistic activity
Human OX2R
  IC50: > 10000 nM
[1]
  Body shake: number of animals with withdrawal syndrome/total number of animals: 6/8
  Diarrhea score Liquid feces or liquid diarrhea (number of corresponding animals/total number of animals): 2/8
  Diarrhea score Loose feces (number of corresponding animals/total number of animals): 4/8
  Diarrhea score Normal feces (number of corresponding animals/total number of animals): 2/8
  Forepaw tremor: number of animals with withdrawal syndrome/total number of animals: 6/8
  Jumping: number of animals with withdrawal syndrome/total number of animals: statistically significantly suppressed and 1/8*
  Ptosis: number of animals with withdrawal syndrome/total number of animals: tendency to suppress and 4/8
  Rearing: number of animals with withdrawal syndrome/total number of animals: tendency to suppress and 5/8
  diarrhea (withdrawal syndrome, in words): statistically significantly suppressed
[1]; FIG. 1
  body weight loss (withdrawal syndrome): statistically significantly suppressed
[2]
  Body shake: number of animals with withdrawal syndrome/total number of animals: 7/13
  Diarrhea score Liquid feces or liquid diarrhea (number of corresponding animals/total number of animals): 3/13
  Diarrhea score Loose feces (number of corresponding animals/total number of animals): 8/13
  Diarrhea score Normal feces (number of corresponding animals/total number of animals): 2/13
  Forepaw tremor: number of animals with withdrawal syndrome/total number of animals: 11/13
  Jumping: number of animals with withdrawal syndrome/total number of animals: statistically significantly suppressed and 2/13**
  Ptosis: number of animals with withdrawal syndrome/total number of animals: tendency to suppress and 3/13
  Rearing: number of animals with withdrawal syndrome/total number of animals: 11/13
  diarrhea (withdrawal syndrome, in words): statistically significantly suppressed
[2]; FIG. 2
  body weight loss (withdrawal syndrome): statistically significantly suppressed
